{"source": "paper PMC12610503", "about": "“The Molecular Mechanism of PDE1 Regulation” (Cells, 2025)", "key": {"[1]": {"test_system": "PDE1/4 chimera (PDE1B regulatory domain fused to the PDE4D catalytic domain)", "test": "PDE4 inhibitor inhibition of the PDE1/4 chimera (SPA)", "assay_type": "biochemical, human", "details": "[3H]-cAMP; for Inhibition of PDE1/4 chimera activity (in words) / Rolipram potency on PDE1/4 chimera relative to PDE4D catalytic domain (in words) / Rolipram affinity/potency boost on calcium/calmodulin-activated PDE1/4 chimera (in words): pH 7.2, 1 h, room temperature; for Rolipram potency on PDE1/4 chimera relative to PDE4D catalytic domain (in words): IC50, 3–5 independent experiments, without calcium/calmodulin activation; for Rolipram affinity/potency boost on calcium/calmodulin-activated PDE1/4 chimera (in words): chimera activated by calcium/calmodulin", "excerpt": "(§1) Human PDE1B1 (Refseq: NM_000924.4) and its N-terminal deletion constructs were cloned into BamH1 and Xho1 sites of pcDNA3.1(+) using PCR. The stated boundary and amino acid positions for mutants and deletion constructs are based on the PDE1B1 isoform (Refseq: NP_000915). For all N-terminal constructs, a start codon was introduced upstream of the indicated boundary, resulting in a methionine preceding the amino acid specified by the N-terminal boundaries. Point mutations and internal deletions were generated using the QuickChange^TM site-directed mutagenesis method, as previously described. The PDE1B-PDE4D chimera was generated by inserting the human PDE4D catalytic domain with a PCR-introduced N-terminal BspE1 site into a pcDNA3.1-PDE1B (82-end) construct using an internal BspE1 site at the junction of the regulatory and catalytic domain and an Xho1 site downstream of the stop codon. All constructs were validated through sequencing. Maps and sequences are available upon request. Alignments were generated using Geneious Prime (v 2024.0.7). Amino acids are colored according to the RasMol color scheme, and similarities are indicated according to the BLOSUM substitution matrix.\nPlasmids were transiently transfected into HEK293 cells using Lipofectamine 2000 (Thermo Fisher, Waltham, MA, USA) according to the manufacturer’s instructions. For each well of a 6-well plate, 5 µg plasmid and 10 µL Lipofectamine 2000 were used.\nNext, 48 h after transfection, cells were washed once with ice-cold PBS, scraped off into 2 mL PBS, and pelleted via centrifugation at 700× g for 5 min at 4 °C. The resulting cell pellet was frozen. Later, the pellet was thawed and resuspended in 0.5 mL of lysis buffer 50 mM Tris-HCL (pH 8.0) (Sigma-Aldrich, T3253, St. Louis, MO, USA), 1 mM MgCl2, and Complete ULTRA protease inhibitor cocktail (Roche, 05892970001, Basel, Switzerland). The lysate was then centrifuged at 20.000× g for 10 min at 4 °C to remove nuclei and membranes. Then, 0.05% Tween20 (Sigma-Aldrich, P2287) (final concentration) was added to the supernatant containing the cytosolic PDE1 before it was aliquoted and snap frozen.\nPDE activity was measured using a scintillation proximity assay (SPA)-based method, similar to that previously described. Briefly, assays were conducted in 96-well plates using a buffer containing 40 mM Hepes (pH 7.2), 140 mM KCl, and 1.5 mM MgCl2. In each well, 0.005–0.05 µL PDE lysate was mixed with or without final concentrations of 50 µM CaCl2 and 50 nM calmodulin (Sigma-Aldrich, P1431) in a volume of 55 µL, and allowed to stand for 5 min at room temperature. Lysate amounts were adjusted to ensure that less than 30% of the tritiated substrate was hydrolyzed. Next, 10 µL tritiated cyclic nucleotide substrate ([3H]-cGMP for PDE1 and [3H]-cAMP for PDE4 and the PDE1/4 chimera) was added, and the reaction was allowed to proceed for 1 h at room temperature before 15 µL of 8 mg/mL phosphodiesterase SPA beads (Perkin Elmer, RPNQ0150, Shelton, CT, USA) was added. After another hour at room temperature to allow binding of the reaction products to the beads, the plates were counted for 2 min using a liquid scintillation counter (Wallac Trilux, Turku, Finland). […] To avoid overestimating inhibition, PEP1-sol was also tested by adding it after reaction termination (i.e., after SPA bead addition) in concentration–response experiments, and pre-addition inhibition minus post-addition (apparent) inhibition at each concentration was used for IC50 calculations.\nTo test whether the regulatory domains are functionally transferable, we generated and expressed a PDE1/4 chimera with the regulatory domain from PDE1B fused to the catalytic domain from PDE4D (Figure S1)."}, "[2]": {"test_system": "PDE4 UCR2-containing isoforms", "details": "cited from earlier work", "excerpt": "For PDE4, the longer isoforms that contain the N-terminal upstream conserved regions (UCR1 and UCR2) are activated by phosphorylation via the cAMP-activated protein kinase A (PKA), providing feedback regulation. […] To test whether the regulatory domains are functionally transferable, we generated and expressed a PDE1/4 chimera with the regulatory domain from PDE1B fused to the catalytic domain from PDE4D (Figure S1). […] Rolipram is a selective PDE4 inhibitor with higher potency towards PD ..."}, "[3]": {"test": "Solubility of inhibitory domain peptides", "assay_type": "physicochemical"}, "[4]": {"biological_target": "T1, PDE1B catalytic domain (PDE1B-cata) (Homo sapiens, UniProt Q01064)", "T1 construct": "compared to the PDE1B catalytic domain (PDE1B-cata; 146–536); added initiator methionine (single Met before residue 146); made in house; host or cells: HEK293 cells, transiently transfected with pcDNA3.1(+) construct; cleared cytosolic lysate used, not purified", "T1 sequence (Q01064 146-536)": "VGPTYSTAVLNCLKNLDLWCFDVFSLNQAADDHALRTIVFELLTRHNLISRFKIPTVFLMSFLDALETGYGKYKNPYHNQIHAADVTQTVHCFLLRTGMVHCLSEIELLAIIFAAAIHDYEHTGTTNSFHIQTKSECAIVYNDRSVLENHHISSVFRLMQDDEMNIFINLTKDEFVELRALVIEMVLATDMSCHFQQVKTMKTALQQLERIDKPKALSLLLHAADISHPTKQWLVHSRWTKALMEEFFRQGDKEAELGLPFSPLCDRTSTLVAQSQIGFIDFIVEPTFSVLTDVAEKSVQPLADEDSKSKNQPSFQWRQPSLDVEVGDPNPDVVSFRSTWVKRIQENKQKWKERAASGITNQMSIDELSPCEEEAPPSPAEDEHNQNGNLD", "test": "Inhibition of PDE1B-cata enzyme activity by inhibitory domain peptides added in trans (SPA)", "assay_type": "biochemical", "details": "[3H]-cGMP, pH 7.2, 1 h, room temperature, post-addition (apparent) inhibition subtracted, average ± SEM from 3 independent experiments", "excerpt": "as §1, with “Alignments were generated using Geneious Prime (v 2024.0.7). Amino acids are colored according to the RasMol color scheme, and similarities are indicated according to the BLOSUM substitution matrix.” left out\n(§2) PDE activity was measured using a scintillation proximity assay (SPA)-based method, similar to that previously described. […] After another hour at room temperature to allow binding of the reaction products to the beads, the plates were counted for 2 min using a liquid scintillation counter (Wallac Trilux, Turku, Finland). […] Since absorbance was low, this had only a minor impact on IC50 estimates. […]"}, "PDE1B_82–501": {"test_system": "PDE1B_82–501", "test": "Calcium/calmodulin activation of PDE1B_82–501 (SPA)", "assay_type": "biochemical, human", "details": "50 nM calmodulin and 50 µM CaCl2; deletion of 35 amino acids from C-terminal", "excerpt": "as §1, with “Alignments were generated using Geneious Prime (v 2024.0.7). Amino acids are colored according to the RasMol color scheme, and similarities are indicated according to the BLOSUM substitution matrix.” left out\nas §2"}}, "note": "Entries after “also recorded” stand apart in the source; their conditions may differ. Ends that are not written are not given here.", "data": [{"compound": "O=C(Nc1c(Cl)cncc1Cl)c1ccc(OC(F)F)c(OCC2CC2)c1", "note": "[roflumilast]", "values": [{"measurement": "Effect of calcium/calmodulin activation on roflumilast IC50 towards chimera (in words)", "setting": "[1]; 3-4 independent experiments", "value": "unaffected by"}, {"measurement": "Roflumilast IC50 towards chimera compared with PDE4Dcata (in words)", "setting": "[1]; 3-4 independent experiments, one-way ANOVA with Sidak's", "value": "not significantly different from PDE4D catalytic domain"}, {"measurement": "Inhibition of PDE1/4 chimera activity (in words)", "setting": "[1]", "value": "could be inhibited; also recorded: inhibits the PDE1/4 chimera"}]}, {"compound": "COc1ccc(C2CNC(=O)C2)cc1OC1CCCC1", "note": "(stereo not shown) [rolipram]", "values": [{"measurement": "Rolipram affinity for UCR2-containing isoforms compared to the catalytic domain alone (in words)", "setting": "[2]; compared to the catalytic domain alone", "value": "higher affinity"}, {"measurement": "Rolipram potency towards PDE4 isoforms containing regulatory domains (in words)", "setting": "[2]; selective PDE4 inhibitor", "value": "higher potency towards PDE4 isoforms containing regulatory domains"}, {"measurement": "Inhibition of PDE1/4 chimera activity (in words)", "setting": "[1]", "value": "could be inhibited"}, {"measurement": "Rolipram potency on PDE1/4 chimera relative to PDE4D catalytic domain (in words)", "setting": "[1]", "value": "inhibited the PDE1/4 chimera more potently than the PDE4D catalytic domain"}, {"measurement": "Rolipram potency on PDE1/4 chimera relative to PDE4D catalytic domain (in words)", "setting": "[1]; listed as Rolipram", "value": "inhibits the PDE1/4 chimera more potently than the PDE4D catalytic domain alone"}, {"measurement": "Rolipram affinity/potency boost on calcium/calmodulin-activated PDE1/4 chimera (in words)", "setting": "[1]", "value": "affinity boost was lost when the chimera was activated by calcium/calmodulin"}, {"measurement": "Rolipram affinity/potency boost on calcium/calmodulin-activated PDE1/4 chimera (in words)", "setting": "[1]; listed as Rolipram", "value": "increased potency is lost upon activation of the chimera by calcium/calmodulin"}]}, {"compound": "SDEVPSEVRDWLASTFTRQ [PEP1-sol]", "values": [{"measurement": "Solubility (in words)", "setting": "[3]", "value": "more soluble variant"}, {"measurement": "IC50", "setting": "[4]", "value": "17.9 ± 2.1", "unit": "µM"}]}, {"compound": "calmodulin", "values": [{"measurement": "Calmodulin regulation of PDE1B_82–501 (in words)", "setting": "PDE1B_82–501", "value": "no impact on calmodulin regulation of activity"}]}]}
